Laboratory results as given in PMC7206119, “RIP1 inhibition blocks inflammatory diseases but not tumor growth or metastases” (Cell Death and Differentiation, 2019).

Legend:
Test in all cases: biochemical
Set-up in all cases: Thermo Fisher SelectScreen kinase panel: Z'-LYTE and Adapta activity, LanthaScreen binding
STK16 = STK16 (Homo sapiens, UniProt O75716)
Protocol: (§1) 5 88 GNE684 was tested in Thermo Fisher Scientific SelectScreen assay (Madison, WI) 89 against 221 representative kinases at a concentration of 10 µM, which is 476-fold greater than the Ki app 90 for GNE684 against human RIP1 in the RIP1 enzyme 91 assay. The kinase assays were carried out using Z'-LYTE and Adapta activity and 92 LanthaScreen binding assays (Thermo Fisher Scientific, Madison WI) following 93 protocols developed and performed by Thermo Fisher Scientific 94 (https://www.thermofisher.com/us/en/home/products-and-services/services/custom-95 services/screening-and-profiling-services/selectscreen-profiling-service/selectscreen-96 kinase-profiling-service.html). 97 GNE684 was also tested against 468 kinases in the KINOMEscan scanMAX kinase 98 binding assay panel at a concentration of 10 µM following protocols developed and 99 performed by DiscoverX (http://www.discoverx.com/kinase_profiling).

BTK = BTK (Homo sapiens, UniProt Q06187)
Protocol: as §1

FGFR1 = FGFR1 (Homo sapiens, UniProt P11362)
Protocol: as §1

SRPK1 = SRPK1 (Homo sapiens, UniProt Q96SB4)
Protocol: as §1

TXK = TXK (Homo sapiens, UniProt P42681)
Sequence of TXK (P42681 whole entry): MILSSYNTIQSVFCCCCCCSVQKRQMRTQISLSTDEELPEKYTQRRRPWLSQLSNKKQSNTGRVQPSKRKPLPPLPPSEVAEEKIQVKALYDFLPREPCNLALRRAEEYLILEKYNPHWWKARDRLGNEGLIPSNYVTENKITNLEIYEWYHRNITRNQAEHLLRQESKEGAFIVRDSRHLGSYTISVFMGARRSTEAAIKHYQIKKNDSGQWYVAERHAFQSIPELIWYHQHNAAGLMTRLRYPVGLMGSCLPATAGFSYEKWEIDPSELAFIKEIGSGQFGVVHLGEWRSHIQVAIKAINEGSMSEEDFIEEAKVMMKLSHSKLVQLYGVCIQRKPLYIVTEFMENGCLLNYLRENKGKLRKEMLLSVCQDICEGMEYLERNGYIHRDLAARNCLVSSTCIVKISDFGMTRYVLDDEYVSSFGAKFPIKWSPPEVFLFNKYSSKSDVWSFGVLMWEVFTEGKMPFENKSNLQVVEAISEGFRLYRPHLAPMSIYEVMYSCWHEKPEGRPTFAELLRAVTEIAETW
Protocol: as §1

RSK3 = target: T1, RSK3 (Homo sapiens, UniProt Q15349)
T1 construct: gene RPS6KA2
Protocol: as §1

MAPKAPK3 = MAPKAPK3 (Homo sapiens, UniProt Q16644)
Sequence of MAPKAPK3 (Q16644 whole entry): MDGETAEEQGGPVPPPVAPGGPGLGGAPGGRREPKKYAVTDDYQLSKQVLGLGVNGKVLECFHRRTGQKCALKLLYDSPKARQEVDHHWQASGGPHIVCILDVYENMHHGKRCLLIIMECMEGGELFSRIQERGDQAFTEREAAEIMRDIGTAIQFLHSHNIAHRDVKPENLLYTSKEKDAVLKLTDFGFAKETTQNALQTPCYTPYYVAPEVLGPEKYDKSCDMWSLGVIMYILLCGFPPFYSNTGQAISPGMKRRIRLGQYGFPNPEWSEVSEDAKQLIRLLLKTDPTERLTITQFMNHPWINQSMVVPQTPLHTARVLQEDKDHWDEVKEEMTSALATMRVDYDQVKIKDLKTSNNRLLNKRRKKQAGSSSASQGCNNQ
Protocol: as §1

MYLK3(caMLCK) = target: T2, MYLK3(caMLCK) (Homo sapiens, UniProt Q32MK0)
T2 construct: cardiac MLCK
T2 sequence (Q32MK0 whole entry): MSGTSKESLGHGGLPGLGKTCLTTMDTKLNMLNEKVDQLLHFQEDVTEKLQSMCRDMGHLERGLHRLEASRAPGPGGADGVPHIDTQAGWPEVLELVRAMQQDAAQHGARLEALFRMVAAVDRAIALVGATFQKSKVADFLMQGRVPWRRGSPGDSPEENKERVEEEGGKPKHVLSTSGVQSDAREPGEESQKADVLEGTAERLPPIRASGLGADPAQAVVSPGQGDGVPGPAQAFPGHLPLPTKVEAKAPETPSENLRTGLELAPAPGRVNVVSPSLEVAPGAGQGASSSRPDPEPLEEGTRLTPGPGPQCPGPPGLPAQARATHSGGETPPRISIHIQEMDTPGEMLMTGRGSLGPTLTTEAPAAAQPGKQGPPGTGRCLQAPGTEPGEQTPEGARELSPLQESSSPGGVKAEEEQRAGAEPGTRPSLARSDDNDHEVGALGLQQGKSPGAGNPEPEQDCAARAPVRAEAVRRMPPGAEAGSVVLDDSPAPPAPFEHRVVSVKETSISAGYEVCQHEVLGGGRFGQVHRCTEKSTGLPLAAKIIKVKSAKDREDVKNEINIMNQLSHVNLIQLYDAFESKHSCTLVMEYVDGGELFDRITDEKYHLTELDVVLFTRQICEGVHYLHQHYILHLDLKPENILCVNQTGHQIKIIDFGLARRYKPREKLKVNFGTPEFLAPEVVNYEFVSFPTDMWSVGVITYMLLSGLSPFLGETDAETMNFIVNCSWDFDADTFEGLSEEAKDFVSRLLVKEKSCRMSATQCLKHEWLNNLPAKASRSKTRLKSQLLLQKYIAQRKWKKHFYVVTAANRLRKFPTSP
Protocol: as §1

SGK2 = SGK2 (Homo sapiens, UniProt Q9HBY8)
Sequence of SGK2 (Q9HBY8 whole entry): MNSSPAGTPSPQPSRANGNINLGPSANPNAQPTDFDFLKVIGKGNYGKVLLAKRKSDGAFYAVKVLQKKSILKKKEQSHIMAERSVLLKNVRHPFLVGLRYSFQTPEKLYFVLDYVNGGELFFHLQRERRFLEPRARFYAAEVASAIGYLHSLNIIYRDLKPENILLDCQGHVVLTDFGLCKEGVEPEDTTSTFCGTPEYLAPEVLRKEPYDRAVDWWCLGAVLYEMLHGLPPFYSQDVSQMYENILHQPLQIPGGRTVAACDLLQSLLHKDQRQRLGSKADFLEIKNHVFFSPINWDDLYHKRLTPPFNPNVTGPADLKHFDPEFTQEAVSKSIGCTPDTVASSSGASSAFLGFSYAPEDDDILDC
Protocol: as §1

ALK2 = target: T3, ALK2 (Homo sapiens, UniProt Q04771)
T3 construct: gene ACVR1
Protocol: as §1

DRAK1 = target: T4, DRAK1 (Homo sapiens, UniProt Q9UEE5)
T4 construct: gene STK17A
T4 sequence (Q9UEE5 whole entry): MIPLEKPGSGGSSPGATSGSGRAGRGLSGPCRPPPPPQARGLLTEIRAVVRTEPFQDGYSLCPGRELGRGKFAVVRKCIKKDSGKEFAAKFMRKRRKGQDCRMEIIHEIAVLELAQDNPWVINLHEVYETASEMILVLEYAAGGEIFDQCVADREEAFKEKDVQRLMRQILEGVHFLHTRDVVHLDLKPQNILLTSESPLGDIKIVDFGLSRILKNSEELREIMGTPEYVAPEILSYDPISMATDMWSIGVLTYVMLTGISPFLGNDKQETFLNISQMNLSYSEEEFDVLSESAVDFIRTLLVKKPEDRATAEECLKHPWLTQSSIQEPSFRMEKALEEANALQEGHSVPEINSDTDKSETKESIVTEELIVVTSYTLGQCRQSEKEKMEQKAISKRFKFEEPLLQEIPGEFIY
Protocol: as §1

PKG1_alpha = target: T5, PKG1_alpha (Homo sapiens, UniProt Q13976)
T5 construct: gene PRKG1; isoform alpha
T5 sequence (Q13976 whole entry, canonical isoform): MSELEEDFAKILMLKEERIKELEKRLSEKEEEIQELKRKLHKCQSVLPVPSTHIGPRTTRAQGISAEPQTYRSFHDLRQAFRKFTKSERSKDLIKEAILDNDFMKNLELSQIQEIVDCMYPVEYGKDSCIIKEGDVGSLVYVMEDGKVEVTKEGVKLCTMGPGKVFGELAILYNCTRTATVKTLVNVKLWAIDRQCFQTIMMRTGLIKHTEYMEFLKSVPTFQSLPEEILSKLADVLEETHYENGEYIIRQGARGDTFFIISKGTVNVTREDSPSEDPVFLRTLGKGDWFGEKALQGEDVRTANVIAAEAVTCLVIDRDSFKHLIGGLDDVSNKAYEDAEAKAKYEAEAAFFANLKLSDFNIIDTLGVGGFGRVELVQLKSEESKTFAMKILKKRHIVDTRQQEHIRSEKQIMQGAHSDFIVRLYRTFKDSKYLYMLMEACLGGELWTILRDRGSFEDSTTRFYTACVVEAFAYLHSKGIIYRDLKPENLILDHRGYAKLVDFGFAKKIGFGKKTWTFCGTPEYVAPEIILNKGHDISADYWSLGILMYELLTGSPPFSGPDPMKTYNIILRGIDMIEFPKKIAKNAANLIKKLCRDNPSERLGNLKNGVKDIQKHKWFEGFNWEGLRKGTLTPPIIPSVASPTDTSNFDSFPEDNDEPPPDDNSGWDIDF
Protocol: as §1

MLK2 = target: T6, MLK2 (Homo sapiens, UniProt Q02779)
T6 construct: gene MAP3K10
Protocol: as §1

EPHB1 = EPHB1 (Homo sapiens, UniProt P54762)
Sequence of EPHB1 (P54762 whole entry): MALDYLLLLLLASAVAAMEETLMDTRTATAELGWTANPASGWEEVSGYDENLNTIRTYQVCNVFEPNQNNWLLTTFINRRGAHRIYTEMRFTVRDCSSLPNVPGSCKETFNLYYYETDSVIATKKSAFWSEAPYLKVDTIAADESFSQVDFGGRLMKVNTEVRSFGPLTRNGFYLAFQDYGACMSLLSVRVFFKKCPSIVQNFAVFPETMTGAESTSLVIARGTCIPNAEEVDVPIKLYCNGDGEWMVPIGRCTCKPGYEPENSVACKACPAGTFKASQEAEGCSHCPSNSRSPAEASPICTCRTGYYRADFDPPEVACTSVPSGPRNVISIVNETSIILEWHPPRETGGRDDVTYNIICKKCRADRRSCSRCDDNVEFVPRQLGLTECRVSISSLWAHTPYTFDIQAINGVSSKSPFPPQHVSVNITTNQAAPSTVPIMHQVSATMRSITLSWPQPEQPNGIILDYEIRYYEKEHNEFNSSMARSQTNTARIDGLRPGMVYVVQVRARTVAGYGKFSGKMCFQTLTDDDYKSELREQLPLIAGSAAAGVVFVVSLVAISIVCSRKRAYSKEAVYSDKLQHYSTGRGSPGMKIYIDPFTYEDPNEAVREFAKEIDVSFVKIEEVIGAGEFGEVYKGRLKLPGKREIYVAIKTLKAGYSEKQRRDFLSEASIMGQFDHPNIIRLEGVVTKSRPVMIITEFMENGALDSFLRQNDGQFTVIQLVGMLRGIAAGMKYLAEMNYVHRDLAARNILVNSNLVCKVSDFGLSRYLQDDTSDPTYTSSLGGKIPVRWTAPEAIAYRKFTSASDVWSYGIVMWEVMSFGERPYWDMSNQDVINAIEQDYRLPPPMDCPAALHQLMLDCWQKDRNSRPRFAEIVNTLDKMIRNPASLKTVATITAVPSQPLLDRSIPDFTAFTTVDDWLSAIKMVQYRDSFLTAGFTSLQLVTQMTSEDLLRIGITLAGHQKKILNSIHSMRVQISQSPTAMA
Protocol: as §1

MYLK(smMLCK) = target: T7, MYLK(smMLCK) (Homo sapiens, UniProt Q15746)
T7 construct: smooth muscle MLCK
Protocol: as §1

CHK1 = target: T8, CHK1 (Homo sapiens, UniProt O14757)
T8 construct: gene CHEK1
T8 sequence (O14757 whole entry): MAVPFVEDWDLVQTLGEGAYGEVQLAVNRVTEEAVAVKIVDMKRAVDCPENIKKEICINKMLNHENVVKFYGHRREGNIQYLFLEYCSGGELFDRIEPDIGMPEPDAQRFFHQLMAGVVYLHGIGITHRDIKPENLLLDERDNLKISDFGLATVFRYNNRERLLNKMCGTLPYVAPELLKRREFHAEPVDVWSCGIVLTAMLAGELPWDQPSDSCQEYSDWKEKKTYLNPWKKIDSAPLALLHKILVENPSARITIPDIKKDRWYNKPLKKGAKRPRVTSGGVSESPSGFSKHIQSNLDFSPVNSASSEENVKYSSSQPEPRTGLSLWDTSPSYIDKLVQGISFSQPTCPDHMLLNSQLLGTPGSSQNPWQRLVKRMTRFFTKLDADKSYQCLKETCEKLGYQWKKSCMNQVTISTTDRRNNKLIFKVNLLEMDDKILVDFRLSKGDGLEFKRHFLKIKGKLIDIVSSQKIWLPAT
Protocol: as §1

NLK = NLK (Homo sapiens, UniProt Q9UBE8)
Protocol: as §1

CLK3 = CLK3 (Homo sapiens, UniProt P49761)
Protocol: as §1

Mer = target: T9, Mer (Homo sapiens, UniProt Q12866)
T9 construct: gene MERTK
Protocol: as §1

INSR = INSR (Homo sapiens, UniProt P06213)
Protocol: as §1

MTOR = MTOR (Homo sapiens, UniProt P42345)
Protocol: as §1

LRRK2 = LRRK2 (Homo sapiens, UniProt Q5S007)
Protocol: as §1

PRKAA1 = PRKAA1 (Homo sapiens, UniProt Q13131)
Protocol: as §1

Sequence of STK16 (O75716 whole entry): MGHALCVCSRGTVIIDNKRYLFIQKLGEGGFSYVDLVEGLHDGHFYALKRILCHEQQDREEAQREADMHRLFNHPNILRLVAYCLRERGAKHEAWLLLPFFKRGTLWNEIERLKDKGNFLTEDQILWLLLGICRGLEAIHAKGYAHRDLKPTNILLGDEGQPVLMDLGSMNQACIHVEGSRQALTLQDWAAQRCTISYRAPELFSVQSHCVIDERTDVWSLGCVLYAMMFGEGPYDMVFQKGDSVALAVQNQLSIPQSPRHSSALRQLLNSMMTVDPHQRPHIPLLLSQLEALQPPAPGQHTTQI

Question: Which inhibition at 10 µM (STK16) does the source give for `COc1cc2c(cn1)N(C)C(=O)[C@@H](NC(=O)c1nc3n(n1)[C@H](c1ccccc1)CC3)CC2` [GNE684, (S)-N-((S)-7-methoxy-1-methyl-2-oxo-2,3,4,5-tetrahydro-1H-pyrido[3,4-b]azepin-3-yl)-5-phenyl-6,7-dihydro-5H-pyrrolo[1,2-b][1,2,4]triazole-2-carboxamide] here?
Answer: The inhibition at 10 µM was -2%.

Question: What about the inhibition at 10 µM (BTK) of the same molecule?
Answer: Its inhibition at 10 µM is -3.5%.

Question: And the inhibition at 10 µM (FGFR1)?
Answer: The inhibition at 10 µM was -2%.

Question: And the inhibition at 10 µM (SRPK1)?
Answer: Its inhibition at 10 µM is -0.5%.

Question: And the inhibition at 10 µM (TXK)?
Answer: Its inhibition at 10 µM is 5.5%.

Question: And the inhibition at 10 µM (RSK3)?
Answer: The inhibition at 10 µM was 6%.

Question: What about the inhibition at 10 µM (MAPKAPK3) of the same molecule?
Answer: The inhibition at 10 µM was 3%.

Question: What about the inhibition at 10 µM (MYLK3(caMLCK)) of the same molecule?
Answer: Its inhibition at 10 µM is -11%.

Question: And the inhibition at 10 µM (SGK2)?
Answer: Its inhibition at 10 µM is 5.5%.

Question: What about the inhibition at 10 µM (ALK2) of the same molecule?
Answer: The inhibition at 10 µM was 2%.

Question: And the inhibition at 10 µM (DRAK1)?
Answer: Its inhibition at 10 µM is 0.5%.

Question: And the inhibition at 10 µM (PKG1_alpha)?
Answer: Its inhibition at 10 µM is 7%.

Question: And the inhibition at 10 µM (MLK2)?
Answer: Its inhibition at 10 µM is 0%.

Question: What about the inhibition at 10 µM (EPHB1) of the same molecule?
Answer: The inhibition at 10 µM was 3%.

Question: What about the inhibition at 10 µM (MYLK(smMLCK)) of the same molecule?
Answer: Its inhibition at 10 µM is -5%.

Question: What about the inhibition at 10 µM (CHK1) of the same molecule?
Answer: Its inhibition at 10 µM is -7%.

Question: And the inhibition at 10 µM (NLK)?
Answer: Its inhibition at 10 µM is -0.5%.

Question: What about the inhibition at 10 µM (CLK3) of the same molecule?
Answer: The inhibition at 10 µM was 1.5%.

Question: What about the inhibition at 10 µM (Mer) of the same molecule?
Answer: The inhibition at 10 µM was -5%.

Question: What about the inhibition at 10 µM (INSR) of the same molecule?
Answer: Its inhibition at 10 µM is 3.5%.

Question: And the inhibition at 10 µM (MTOR)?
Answer: Its inhibition at 10 µM is 2%.

Question: And the inhibition at 10 µM (LRRK2)?
Answer: Its inhibition at 10 µM is -19.5%.

Question: What about the inhibition at 10 µM (PRKAA1) of the same molecule?
Answer: The inhibition at 10 µM was -3%.
